In patent US12104169B2, “Chemical reprogramming to generate neuronal cells” (The J. David Gladstone Institutes, a testamentary trust …, priority 2015, dated 2024):
Counter-ions that a name gives are not always drawn.

Experiments:
[1] = target: SAPK2/p38 (Homo sapiens, UniProt Q16539); conditions: CK1 and ALK5 inhibitor versus SAPK2/p38; cited from earlier work
[2] = tested on: tdMEF; test: Inhibitor assay: pathway inhibitors added to M9 reprogramming; assay type: cell-based, mouse; conditions: Sox2+/Nestin+ cells at day 10
Experimental: When performing the reprogramming, small molecule inhibitors, including 0.5 μM PD0325901, 10 μM SP 600125, 5 μM SB203580, 5 μM LY294002, or 2 μM LDE 225, was added in the freshly made M9 culture medium. DMSO was used in basal medium as control. The medium was changed every 2 days, and the Sox2+/Nestin+ cells were analyzed by immunostaining by day 10 after treatment.

[3] = tested on: Hedgehog (Hh) signaling; conditions: read-out: EC50 activation of Hedgehog (Hh) signaling; cited from earlier work
[4] = tested on: tdMEFs; test: Combinatorial chemical screening for neural reprogramming of tdMEFs (Sox2/Nestin co-expression); assay type: cell-based, mouse; conditions: for Sox2/Nestin double-positive cells: primary screening, single molecule added to basal condition (LDN, A83, CHIR, bFGF), ten days post-treatment; for generation of Sox2/Nestin double-positive cells: added to the six-molecule condition
Experimental: (§1) Cells were washed once with 1×PBS and fixed with 4% paraformaldehyde at room temperature for 10 minutes, followed by permeabilization with 0.2% Triton X-100 in 1×PBS for 10 min, and blocking with 7.5% BSA for at least 1 hour. All primary antibodies were diluted in 1×PBS with 7.5% BSA, and the incubation was performed at 4° C. overnight. The cells were washed with 1×PBS five times for 10 min each at room temperature. The secondary antibodies, labeled with Alexa-488, Alexa-555, and Alexa-647, were purchased from Invitrogen, and were diluted into 1×PBS with 7.5% BSA. Incubation with the secondary antibodies was for 1 hour at room temperature, followed by five 10-minute washes with 1×PBS. The nuclei were stained with DAPI. Living cell staining was used for cell-surface marker O4, as described by Najm et al. (Nat. Biotechnol. 31: 426-433 (2013)). Antibodies used in this study are listed below in Table 1.
Briefly, tdMEFs were plated into neural reprogramming basal medium at 15,000 cells per well in 24-well plate, and after an overnight culture, individual small molecules from a focused chemical collection, including epigenetic modifiers, metabolism regulators, and signaling modulators, were added. Ten days post-treatment, cells were fixed, immune-stained, and analyzed for co-expression of Sox2 and Nestin, two typical NSC markers (FIG. 1A-1B).

[5] = tested on: A53T alpha-synuclein clearance in PC-12 cells; conditions: independent of rapamycin treatment; cited from earlier work
[6] = tested on: Hedgehog signaling pathway in Shh-light 2 cells; conditions: read-out: EC50 activation of Hedgehog signaling pathway; cited from earlier work
[7] = target: Smoothened (Smo) receptor (Homo sapiens, UniProt Q99835); conditions: cited from earlier work
Sequence of Smoothened (Smo) receptor (Q99835 28-787): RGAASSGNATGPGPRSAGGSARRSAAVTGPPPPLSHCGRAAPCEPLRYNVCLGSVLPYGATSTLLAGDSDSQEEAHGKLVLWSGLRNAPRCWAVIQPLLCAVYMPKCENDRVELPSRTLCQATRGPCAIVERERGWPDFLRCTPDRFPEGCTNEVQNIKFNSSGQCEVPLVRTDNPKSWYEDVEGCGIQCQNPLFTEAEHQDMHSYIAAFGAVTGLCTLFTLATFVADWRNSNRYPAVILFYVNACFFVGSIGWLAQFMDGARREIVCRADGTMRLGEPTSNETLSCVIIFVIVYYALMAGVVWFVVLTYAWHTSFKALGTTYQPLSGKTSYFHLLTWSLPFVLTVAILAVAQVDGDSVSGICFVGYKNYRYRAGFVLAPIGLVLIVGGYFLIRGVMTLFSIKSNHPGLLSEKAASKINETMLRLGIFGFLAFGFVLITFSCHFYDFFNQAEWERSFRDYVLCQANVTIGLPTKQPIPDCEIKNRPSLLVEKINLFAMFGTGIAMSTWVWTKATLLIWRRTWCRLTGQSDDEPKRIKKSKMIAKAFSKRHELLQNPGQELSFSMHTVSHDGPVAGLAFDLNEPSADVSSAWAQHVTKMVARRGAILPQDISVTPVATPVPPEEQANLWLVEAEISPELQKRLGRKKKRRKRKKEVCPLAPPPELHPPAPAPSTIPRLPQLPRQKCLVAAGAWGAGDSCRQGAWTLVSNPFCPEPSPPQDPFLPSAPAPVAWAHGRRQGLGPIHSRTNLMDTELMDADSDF

[8] = tested on: tdMEF; test: M9 chemical conversion of tdMEFs to ciNSLCs (Sox2/Nestin immunostaining); assay type: cell-based, mouse; conditions: FIG. 2G
Experimental: To convert the fibroblasts into ciNSLCs, MEFs were seeded into Matrigel (Corning, 1:40 dilution)-coated 24-well plates at 15,000 per well, or 1-1.5 million in 15-cm dishes in MEF medium (Dulbecco's modified Eagle's medium supplemented with 10% FBS, 0.1 mM nonessential amino acids, and 2 mM Glutamax) for the first 24 hours. […] M9 medium was refreshed every other day. After a 10-day induction, cells were cultured in neural stem cells medium (NSC medium). Afterwards, the cells could be repeatedly propagated in NSC medium.
as §1, with “Antibodies used in this study are listed below in Table 1.” left out

[9] = tested on: ciNSLC-derived neurons; assay type: cell-based, mouse

Sequence of SAPK2/p38 (Q16539 whole entry): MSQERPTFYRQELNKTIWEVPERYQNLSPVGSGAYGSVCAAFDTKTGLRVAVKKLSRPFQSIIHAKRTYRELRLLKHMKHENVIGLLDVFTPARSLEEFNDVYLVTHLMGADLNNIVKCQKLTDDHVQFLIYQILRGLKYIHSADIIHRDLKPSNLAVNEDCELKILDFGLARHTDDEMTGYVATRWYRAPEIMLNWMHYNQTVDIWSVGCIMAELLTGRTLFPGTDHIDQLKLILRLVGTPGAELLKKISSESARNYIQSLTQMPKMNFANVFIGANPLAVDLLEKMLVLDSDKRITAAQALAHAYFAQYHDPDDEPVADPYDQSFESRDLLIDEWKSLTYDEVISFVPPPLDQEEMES

Compound: NC(=O)c1ccc(-c2nc(-c3ccc4c(c3)OCCO4)c(-c3ccccn3)[nH]2)cc1 [D 4476, 4-[4-(2,3-Dihydro-1,4-benzodioxin-6-yl)-5-(2-pyridinyl)-1H-imidazol-2-yl]benzamide]
- selectivity over SAPK2/p38 [1]: greater than 20 fold

Compound: Oc1c2ccccc2c2c3c(cccc13)N=N2 [SP600125]
- reduction of reprogramming efficiency ([2]; 10 μM added to M9 medium): ~6 fold

Compound: CC(C)CCC[C@](C)(O)[C@H]1CC[C@H]2[C@@H]3CC=C4C[C@@H](O)CC[C@]4(C)[C@H]3CC[C@@]21C [(3β)-Cholest-5-ene-3,20-diol]
- EC50 [3]: ~3000 nM

Compound: C[S+]([O-])c1ccc(-c2nc(-c3ccc(F)cc3)c(-c3ccncc3)[nH]2)cc1 (stereo not shown) [SB203580]
- reduction of reprogramming efficiency ([2]; 5 μM SB203580 added to M9 medium): ~5 fold

Compound: CC1=C(/C=C/C(C)=C/C=C/C(C)=C/C(=O)O)C(C)(C)CCC1 [retinoic acid]
- Sox2/Nestin double-positive cells [4]: 1.26%

Compound: C=CCNc1ncnc2ccc(Br)cc12 [SMER28, 6-bromo-N-2-propenyl-4-quinazolinamine]
- A53T alpha-synuclein clearance [5]: enhances
- generation of Sox2/Nestin double-positive cells [4]: further enhanced

Compound: CN[C@H]1CC[C@H](N(Cc2cccc(-c3ccncc3)c2)C(=O)c2sc3ccccc3c2Cl)CC1 [SAG, 3-Chloro-N-[trans-4-(methylamino)cyclohexyl]-N-[[3-(4-pyridinyl)phenyl]methyl]benzo[b]thiophene-2-carboxamide]
- EC50 [6]: ~3 nM
- Kd [7]: 59 nM

Compound: O=C(NOC[C@H](O)CO)c1ccc(F)c(F)c1Nc1ccc(I)cc1F [PD0325901]
- reduction of reprogramming efficiency ([2]; 0.5 μM added to M9 medium): about 9 fold

Compound: CNC1CCC(N(Cc2cccc(-c3ccncc3)c2)C(=O)c2sc3c(F)ccc(F)c3c2Cl)CC1 (stereo not shown) [Hh-Ag 1.5, 3-chloro-4,7-difluoro-N-(4-(methylamino)cyclohexyl)-N-(3-(pyridin-4-yl)benzyl)benzo[b]thiophene-2-carboxamide]
- reprogramming efficiency when the component is removed from the M9 cocktail [8]: affected the ciNSLC induction most
- Sox2/Nestin double-positive cells [4]: 3.68%

Compound: N[C@@H]1C[C@H]1c1ccccc1 (racemic) [Parnate, tranylcypromine sulfate]
- generation of Sox2/Nestin double-positive cells [4]: further enhanced

Compound: O=C(O)[C@@H](Cc1c[nH]c2ccccc12)N1C(=O)c2ccccc2C1=O (stereo in doubt) [RG108, N-Phthalyl-L-tryptophan]
- generation of Sox2/Nestin double-positive cells [4]: further enhanced

Compound: Cc1c(C(=O)Nc2ccc(N3C[C@@H](C)O[C@@H](C)C3)nc2)cccc1-c1ccc(OC(F)(F)F)cc1 [LDE-225]
- reduction of reprogramming efficiency ([2]; 2 μM added to M9 medium): about 6 fold

Compound: O=c1cc(N2CCOCC2)oc2c(-c3ccccc3)cccc12 [LY294002]
- reduction of reprogramming efficiency ([2]; 5 μM LY294002 added to M9 medium): ~4 fold

Compound: NC1=N[C@H](O)[C@H]2[C@H]3O[C@]4(O)O[C@@H]([C@@H](O)[C@@]2(N1)[C@@H]4O)[C@]3(O)CO [tetrodotoxin]
- inactivating inward current [9]: blocked

Compound: bFGF: basic fibroblast growth factor (bFGF; also known as FGF2)
- reprogramming efficiency when the component is removed from the M9 cocktail [8]: affected the ciNSLC induction most

Compound: CC[N+](CC)(CC)CC [tetraethylammonium]
- persistent outward current [9]: blocked
